Laboratory results reported in patent US6852341B2 (priority 2000, dated 2005).
Read-outs that look alike come from different tables or passages of the source.

Experiments:
reniform nematode = test system: reniform nematode
Method: (§1) The liquid potassium azide compound was added to the soil in an aqueous solution of amounts of: 1, 2, 3, 4 and 5 mgs KN3 per kg of soil. The formulation used for this experiment 1% KN3 and 0.5% sodium lauryl sulfate. Soil samples were collected one week after the application of the KN3 solution for nematological analysis using such techniques as the salad bowl incubation technique.

microbivorous nematodes = settings: 1-5 mgs KN3 per kg of soil, one week after application
Method: as §1

lance nematode = settings: applications of ≧2 mgs KN3/Kg soil, 10 days after application
Method: (§2) In this example, the soil used was from a cotton field infested with the root-knot [Meloidogyne incognita], and lance [Hoplolaimus galeatus], nematodes—each a plant parasitic specie. The soil was mixed with washed siliceous river sand (in equal parts by volume), apportioned into one kg amounts in 4 L plastic bags and placed in pots. The test solution was prepared by dissolving 0.500 gms KN3 in an aqueous solution containing 50 mls of a 10% casein [w/v] solution in 0.1N NaOH and diluting with water to a final volume of 500 mls; the solution thus contained 1 mg KN3/ml. The solution was added to soil at rates of 1, 2, 4, 6, 8, and 10 mls/Kg soil. There were for each treatment and controls [no solution], a total of 7 pots each containing 1 Kg of soil. After application of the solution, for each rate, each pot was covered with a plastic bag. The pots were placed on a greenhouse bench and were arranged in a randomized block design. After 10 days the covers were removed, soil samples were collected from each pot for nematological analyses and “Young” soybean were planted [5 seed/pot]. The resulting plants were allowed to grow for 7 weeks when they were carefully separated from the soil and growth parameters measured. The roots and final soil samples were incubated to determine nematode populations. Nematode numbers in soil and roots were determined using the salad bowl incubation technique.

root-knot nematode [1] = settings: applications of ≧2 mgs KN3/Kg soil, 10 days after application
Method: as §2

"Young" soybean = settings: range 1-8 mgs/Kg soil; sharpest increases at 1 and 2 mgs rates; soybean grown 7 weeks
Method: as §2

[2] = test system: beneficial microbivorous nematodes
Method: as §2

weeds [3] = test system: weeds
[4] = test system: plant parasitic nematodes; assay: Microplot experiment, amine-protein stabilized NaN3, nematode control (Example 3); format: in vivo
Text: (§3) The formulation contained 5% [w/v] […] Soil in the microplots was a sandy loam [pH=6.2; organic matter content <1.0%; C.E.C <10 meq/100 g soil] infested with the nematodes: Meloidogyne incognita, Paratrichodorus minor, Tylenchorhynchus claytoni, and Helicotylenchus dihystera 1]. Weeds in the plots were principally crabgrass [Digitaria sanguinalis], yellow nutsedge [Cyperus esculentum], pigweed [Amaranthus spp.], and morning glories [Ipomea spp., Jacquemontia tamnifolia].
(§4) The plots were covered with standard polyethylene [1 mil] tarp immediately after application of the chemical. After 10 days the cover was removed, the number of weeds was determined, soil samples for nematological analyses were taken and each plot was planted with two 4-week old ‘Huskie’ tomato seedlings. The plants were grown for 3 months and data were collected on yield, number of fruits, weed infestation and nematode populations.

[5] = test system: plant parasitic nematodes
Text: (§5) The square microplots of 1 ft^2 [929 cm^2] and 2 feet [61 cms] deep having an open-bottom were used. Each microplot was delimited by a terra-cotta chimney flue. The soil filling the plot was a sandy loam [pH=6.2; organic matter content <1.0%; C.E.C <10 meq/100 g soil] and was infested with the nematodes: Meloidogyne incognita [root-knot], Paratrichodorus minor [stubby root], Tylenchorhynchus claytoni [stunt], and Helicotylenchus dihystera [spiral]. Weeds introduced into the plots were principally crabgrass [Digitaria sanguinalis], yellow nutsedge [Cyperus esculentum], pigweed [Amaranthus spp.], and morning glories [Ipomea spp., Jacquemontia tamnifolia].
(§6) The plots were covered with standard polyethylene [1 mil] and after 10 days the cover was removed, the number of weeds was determined, soil samples for nematological analyses were taken and each plot was planted with two 3-week old ‘Black Beauty’ eggplant [Solanum melongena] seedlings. The plants were grown for 2 months and data were collected on yield, weed infestation and nematode populations.

weeds [6] = test system: weeds; remark: listed apart in the source
Text: as §5, §6

'Black Beauty' eggplant = settings: eggplant grown 2 months; rates 0-5.0 g/plot
Text: as §5, §6

'Huskie' tomato = settings: tomato grown 3 months
Text: as §3, §4

weeds [7] = assay: Microplot experiment, amine-protein stabilized NaN3, weed control (Example 3); format: in vivo; settings: all but the three lowest rates of NaN3
Text: as §3, §4

[8] = test system: coastal bermuda grass, yellow nutsedge and other weeds
Text: (§7) The soil was a calcareous silty clay loam with pH 7.8 and <1% organic matter. […] Each dosage rate was delivered into pre-acidified soil as well as in non-acidified and administered using 3 different water levels: 3, 10, and 15 L/m^2. Acidification was with H2SO4 to lower soil pH to less than 7.00. […] After 3 weeks the soil was uncovered and a soil sample was removed for nematological analyses and the weeds were counted.

root-knot nematode [9] = settings: dosages of 100 and 200 kg/ha, 3 weeks after application
Text: as §7

pepper or tomato plants = settings: seedlings transplanted 6 weeks after NaN3 application, 100 and 200 kg/ha
"Rowden" cotton = test system: "Rowden" cotton
Method: (§8) The aqueous formulation was a solution containing 1% [w/v] […] After thorough mixing, the contents of a bag were poured into 1 L capacity, 10-cm-diam cylindrical plastic pots which were then covered with standard polyethylene [[…]]. Each rate and the no treatment control was represented by 7 replications [pots] arranged in a randomized complete block design. Ten days after application of the chemical solution, the pots were uncovered and 5 seed of “Rowden” cotton [Gossypium hirsutum] were planted in each pot. The resulting plants were grown for 8 weeks. When the plants were removed after 8 weeks, soil samples were collected for nematological analyses. The shoots and roots of the plants were weighed and the root systems were examined and indexed for disease severity symptoms. Following examination, the roots were incubated to determine nematode populations.

[10] = test system: plant parasitic nematodes (cotton wilt complex Fusarium oxysporum f sp. vasinfectum×Meloidogyne incognita); settings: all NaN3 dosages, 10-100 mgs a.i./kg soil; 8 weeks after planting
Method: as §8

[11] = plots treated with ≦2.0 g NaN3 rates
[12] = three highest rates (3.0, 4.0, 5.0 g/plot)

## [K+].[N-]=[N+]=[N-] [KN3, potassium azide]
Reniform nematode; 1-5 mgs KN3 per kg of soil, one week after application
  numbers of reniform nematode in response to increasing KN3: declined exponentially
Reniform nematode; rates of 4-5 mg of KN3 per kg of soil
  control of the reniform nematodes: ~100%
Microbivorous nematodes
  numbers of microbivorous nematodes in response to increasing KN3: declined in an almost linear fashion
Lance nematode
  lance nematode population in the preplant sample: eliminated
root-knot nematode [1]
  root-knot nematode population in the preplant sample: eliminated
"Young" soybean
  plant response as measured by the weights of shoots and roots: positive and pronounced
[2]; 1 and 2 mg application rates
  numbers of beneficial microbivorous nematodes: pronounced stimulation
[2]; application rates <6 KN3/Kg, final soil
  populations of beneficial microbivorous nematodes: not adversely affected
[2]; in vivo
  application rate necessary to significantly reduce or eliminate microbivorous nematodes: > 4 mgs/Kg soils
Weeds [3]; KN3 rates of 20-200 mg/kg of soil
  number of weeds: declining in proportion to rates used
Weeds [3]; rates of greater than 140 mg/kg of soil
  control rates for weeds: over 80%

## [N-]=[N+]=[N-].[Na+] [NaN3, sodium azide]
[4]; 10 days after drench, 0.5-5.0 g/plot, controls had significant numbers of all species
  nematodes in soil samples at planting: did not contain nematodes
[4]; all rates of application
  plant parasitic nematodes at the end of the experiment: no plant parasitic nematodes
[5]; 10 days after drench, plots treated with 0.5-5.0 g sodium azide/plot, control plots infested with all species
  nematodes in planting time soil samples: no nematodes
[5]; [11]
  plant parasitic nematodes at the end of the experiment: significant populations
[5]; [12]
  plant parasitic nematodes at the end of the experiment: no plant parasitic nematodes
Weeds [6]; 10 days after drench, all but the two lowest rates of NaN3
  weeds at planting: no weeds
Weeds [6]; [11]
  weeds at the end of the experiment: significant populations
Weeds [6]; [12]
  weed infestation at the end of the experiment: no significant weed infestation
'Black Beauty' eggplant
  yield and number of fruits: increased directly in response to NaN3 rates from 0-1.5 g/plot and leveled out
'Huskie' tomato
  yield and number of fruits: increased directly in response to NaN3 rates from 0-4 g/plot
Weeds [7]
  weeds at planting time: no weeds
[8]; 100 and 200 kg/ha
  effectiveness against nutsedge: particularly effective
[8]; dosages of 100 and 200 kg/ha, 3 weeks after application
  weeds controlled: all weeds
root-knot nematode [9]
  nematodes controlled: greater than 90%
Pepper or tomato plants
  phytotoxicity to pepper or tomato plants: no evidence of phytotoxicity
"Rowden" cotton; NaN3 rates 10-60 mgs/kg soil
  weights of shoots and roots: Sharp increases
"Rowden" cotton; NaN3 rates ≧70 mgs/kg soil
  weights of shoots and roots: no additional weight increments
"Rowden" cotton; all NaN3 dosages, 10-100 mgs/kg soil
  cotton root health [root condition index]: markedly improved
[10]
  plant parasitic nematodes in soil and roots: eliminated from the soil and roots
